# In patent publication US20250145665A1, “MACROCYCLIC PEPTIDES USEFUL AS MODULATORS OF TNF ALPHA” (Bristol-Myers Squibb Company, priority 2023, published 2025):
# Read-outs that look alike come from different tables or passages of the source. Starred links: 1 amine or outer side, 2 acyl side, 3 side chain; linkers in the order of their positions; H or OH if unused. Positions of bridges follow the written chain, without caps; N, C: chain ends. Non-standard residues stand in square brackets, D forms with d. Residues, ends and D or L forms follow the SMILES beside them. *: point of attachment. Bip(4'-NHCO-C6H4-3-CH2COOH) = N[C@@H](Cc1ccc(-c2ccc(NC(=O)c3cccc(CC(=O)O)c3)cc2)cc1)C(=O)O; Bip(4'-NHCO-C6H4-4-CH2COOH) = N[C@@H](Cc1ccc(-c2ccc(NC(=O)c3ccc(CC(=O)O)cc3)cc2)cc1)C(=O)O; dArg(Nω-CH2C6H4-3-CH2Gua) = N=C(N)NCc1cccc(CNC(=N)NCCC[C@@H](N)C(=O)O)c1; Bip(4'-NH) = O=C([C@H](Cc1ccc(-c2ccc(N[*:3])cc2)cc1)N[*:1])[*:2]; dArg(ω-(3-HO-benzyl)) = N=C(NCCC[C@@H](N)C(=O)O)NCc1cccc(O)c1; Indazole3carbonyl(1-CH2COOH) = O=C(O)Cn1nc(C(=O)*)c2ccccc21; Bip(4'-COOH) = N[C@@H](Cc1ccc(-c2ccc(C(=O)O)cc2)cc1)C(=O)O; Indole3carbonyl(1-CH2COOH) = O=C(O)Cn1cc(C(=O)*)c2ccccc21; Ala(imidazol-2-yl) = N[C@@H](Cc1ncc[nH]1)C(=O)O; Ala(morpholin-4-yl) = N[C@@H](CN1CCOCC1)C(=O)O; Benzoyl(3-OCH2COOH) = O=C(O)COc1cccc(C(=O)*)c1; Bip = N[C@@H](Cc1ccc(-c2ccccc2)cc1)C(=O)O; 2Pal = N[C@@H](Cc1ccccn1)C(=O)O; Tic = O=C(O)[C@@H]1Cc2ccccc2CN1; Cha = N[C@@H](CC1CCCCC1)C(=O)O; Sar = CNCC(=O)O
# Molecular target: TNFα (Homo sapiens, UniProt P01375)
# Experiment: TNF-Induced HEK-Blue Assay
# Format: cell-based
# [1] = HEK-Blue-CD40L cells, NF-kB-driven secreted alkaline phosphatase reporter, TNFα 0.5 ng/ml, 18 h, read-out: TNF induced HEK-Blue assay IC50 value
# TNFα, sequence (P01375 77-233 limits assumed): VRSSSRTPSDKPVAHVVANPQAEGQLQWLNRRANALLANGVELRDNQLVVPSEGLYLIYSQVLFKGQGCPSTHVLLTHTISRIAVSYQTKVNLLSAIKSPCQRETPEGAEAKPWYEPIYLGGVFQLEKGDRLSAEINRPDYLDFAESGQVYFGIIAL
SMILES,IC50 [1] [µM],IC50 [µM]
CC(C)C[C@@H]1NC(=O)[C@H](Cc2ncc[nH]2)NC(=O)[C@H](C(C)C)NC(=O)[C@@H]2CCCN2C(=O)[C@H](C(C)C)NC(=O)[C@@H](CCCNC(=N)NCc2cccc(O)c2)NC(=O)[C@H](CC(=O)O)NC(=O)[C@H](Cc2ccccn2)NC(=O)CN(C)C(=O)[C@H](Cc2ccc(-c3ccc(NC(=O)c4cccc(CC(=O)O)c4)cc3)cc2)NC(=O)[C@H](Cc2ccc(-c3ccc(C(=O)O)cc3)cc2)NC(=O)[C@H](CC2CCCCC2)NC(=O)CSC[C@@H](C(=O)NCC(N)=O)NC1=O [Example 553] ({CH2CO}-[Cha][Bip(4'-COOH)][Bip(4'-NHCO-C6H4-3-CH2COOH)][Sar][2Pal]D[dArg(ω-(3-HO-benzyl))]VPV[Ala(imidazol-2-yl)]LCG-NH2; thioether N-13),0.05 to 0.2,–
CC(C)C[C@@H]1NC(=O)[C@H](Cc2ncc[nH]2)NC(=O)[C@H](C(C)C)NC(=O)[C@@H]2CCCN2C(=O)[C@H](C(C)C)NC(=O)[C@@H](CCCNC(=N)NCc2cccc(O)c2)NC(=O)[C@H](CC(=O)O)NC(=O)[C@H](Cc2ccccn2)NC(=O)CN(C)C(=O)[C@H](Cc2ccc(-c3ccc(NC(=O)c4ccc(CC(=O)O)cc4)cc3)cc2)NC(=O)[C@H](Cc2ccc(-c3ccc(C(=O)O)cc3)cc2)NC(=O)[C@H](CC2CCCCC2)NC(=O)CSC[C@@H](C(=O)NCC(N)=O)NC1=O [Example 554] ({CH2CO}-[Cha][Bip(4'-COOH)][Bip(4'-NHCO-C6H4-4-CH2COOH)][Sar][2Pal]D[dArg(ω-(3-HO-benzyl))]VPV[Ala(imidazol-2-yl)]LCG-NH2; thioether N-13),< 0.05,–
CC(C)C[C@@H]1NC(=O)[C@H](Cc2ncc[nH]2)NC(=O)[C@H](C(C)C)NC(=O)[C@@H]2CCCN2C(=O)[C@H](C(C)C)NC(=O)[C@@H](CCCNC(=N)NCc2cccc(O)c2)NC(=O)[C@H](CC(=O)O)NC(=O)[C@H](Cc2ccccn2)NC(=O)CN(C)C(=O)[C@H](Cc2ccc(-c3ccc(NC(=O)c4cccc(OCC(=O)O)c4)cc3)cc2)NC(=O)[C@H](Cc2ccc(-c3ccc(C(=O)O)cc3)cc2)NC(=O)[C@H](CC2CCCCC2)NC(=O)CSC[C@@H](C(=O)NCC(N)=O)NC1=O [Example 555] ({CH2CO}-[Cha][Bip(4'-COOH)][Bip(4'-NH)](Benzoyl(3-OCH2COOH))[Sar][2Pal]D[dArg(ω-(3-HO-benzyl))]VPV[Ala(imidazol-2-yl)]LCG-NH2; thioether N-13),< 0.05,–
CC(C)C[C@@H]1NC(=O)[C@H](Cc2ncc[nH]2)NC(=O)[C@H](C(C)C)NC(=O)[C@@H]2CCCN2C(=O)[C@H](C(C)C)NC(=O)[C@@H](CCCNC(=N)NCc2cccc(CNC(=N)N)c2)NC(=O)[C@H](CC(=O)O)NC(=O)[C@H](Cc2ccccn2)NC(=O)CN(C)C(=O)[C@H](Cc2ccc(-c3ccc(NC(=O)c4nn(CC(=O)O)c5ccccc45)cc3)cc2)NC(=O)[C@H](Cc2ccc(-c3ccc(C(=O)O)cc3)cc2)NC(=O)[C@H](CC2CCCCC2)NC(=O)CSC[C@@H](C(=O)NCC(N)=O)NC1=O [Example 556] ({CH2CO}-[Cha][Bip(4'-COOH)][Bip(4'-NH)](Indazole3carbonyl(1-CH2COOH))[Sar][2Pal]D[dArg(Nω-CH2C6H4-3-CH2Gua)]VPV[Ala(imidazol-2-yl)]LCG-NH2; thioether N-13),–,< 0.05
CC(C)C[C@@H]1NC(=O)[C@H](Cc2ncc[nH]2)NC(=O)[C@H](C(C)C)NC(=O)[C@@H]2CCCN2C(=O)[C@H](C(C)C)NC(=O)[C@@H](CCCNC(=N)NCc2cccc(CNC(=N)N)c2)NC(=O)[C@H](CC(=O)O)NC(=O)[C@H](Cc2ccccn2)NC(=O)CN(C)C(=O)[C@H](Cc2ccc(-c3ccc(NC(=O)c4cn(CC(=O)O)c5ccccc45)cc3)cc2)NC(=O)[C@H](Cc2ccc(-c3ccc(C(=O)O)cc3)cc2)NC(=O)[C@H](CC2CCCCC2)NC(=O)CSC[C@@H](C(=O)NCC(N)=O)NC1=O [Example 557] ({CH2CO}-[Cha][Bip(4'-COOH)][Bip(4'-NH)](Indole3carbonyl(1-CH2COOH))[Sar][2Pal]D[dArg(Nω-CH2C6H4-3-CH2Gua)]VPV[Ala(imidazol-2-yl)]LCG-NH2; thioether N-13),–,< 0.05
CC(C)C[C@@H]1NC(=O)[C@H](Cc2ncc[nH]2)NC(=O)[C@H](C(C)C)NC(=O)[C@@H]2CCCN2C(=O)[C@H](C(C)C)NC(=O)[C@@H](CCCNC(=N)NCc2cccc(CNC(=N)N)c2)NC(=O)[C@H](CC(=O)O)NC(=O)[C@H](Cc2ccccn2)NC(=O)CN(C)C(=O)[C@H](Cc2ccc(-c3ccc(NC(=O)c4cccc(CC(=O)O)c4)cc3)cc2)NC(=O)[C@H](Cc2ccc(-c3ccc(C(=O)O)cc3)cc2)NC(=O)[C@H](CC2CCCCC2)NC(=O)CSC[C@@H](C(=O)NCC(N)=O)NC1=O [Example 558] ({CH2CO}-[Cha][Bip(4'-COOH)][Bip(4'-NHCO-C6H4-3-CH2COOH)][Sar][2Pal]D[dArg(Nω-CH2C6H4-3-CH2Gua)]VPV[Ala(imidazol-2-yl)]LCG-NH2; thioether N-13),< 0.05,–
CC(C)C[C@@H]1NC(=O)[C@H](Cc2ncc[nH]2)NC(=O)[C@H](C(C)C)NC(=O)[C@@H]2CCCN2C(=O)[C@H](C(C)C)NC(=O)[C@@H](CCCNC(=N)NCc2cccc(CNC(=N)N)c2)NC(=O)[C@H](CC(=O)O)NC(=O)[C@H](Cc2ccccn2)NC(=O)CN(C)C(=O)[C@H](Cc2ccc(-c3ccc(NC(=O)c4ccc(CC(=O)O)cc4)cc3)cc2)NC(=O)[C@H](Cc2ccc(-c3ccc(C(=O)O)cc3)cc2)NC(=O)[C@H](CC2CCCCC2)NC(=O)CSC[C@@H](C(=O)NCC(N)=O)NC1=O [Example 559] ({CH2CO}-[Cha][Bip(4'-COOH)][Bip(4'-NHCO-C6H4-4-CH2COOH)][Sar][2Pal]D[dArg(Nω-CH2C6H4-3-CH2Gua)]VPV[Ala(imidazol-2-yl)]LCG-NH2; thioether N-13),< 0.05,–
CC(C)C[C@@H]1NC(=O)[C@H](Cc2ncc[nH]2)NC(=O)[C@H](C(C)C)NC(=O)[C@@H]2CCCN2C(=O)[C@H](C(C)C)NC(=O)[C@@H](CCCNC(=N)NCc2cccc(CNC(=N)N)c2)NC(=O)[C@H](CC(=O)O)NC(=O)[C@H](Cc2ccccn2)NC(=O)CN(C)C(=O)[C@H](Cc2ccc(-c3ccc(NC(=O)c4cccc(OCC(=O)O)c4)cc3)cc2)NC(=O)[C@H](Cc2ccc(-c3ccc(C(=O)O)cc3)cc2)NC(=O)[C@H](CC2CCCCC2)NC(=O)CSC[C@@H](C(=O)NCC(N)=O)NC1=O [Example 560] ({CH2CO}-[Cha][Bip(4'-COOH)][Bip(4'-NH)](Benzoyl(3-OCH2COOH))[Sar][2Pal]D[dArg(Nω-CH2C6H4-3-CH2Gua)]VPV[Ala(imidazol-2-yl)]LCG-NH2; thioether N-13),< 0.05,–
CC[C@H](C)[C@@H]1NC(=O)[C@@H](CCCNC(=N)NCc2cccc(O)c2)NC(=O)[C@H](CC(=O)O)NC(=O)[C@H](Cc2cnc[nH]2)NC(=O)CN(C)C(=O)[C@H](Cc2ccc(-c3ccc(NC(=O)c4nn(CC(=O)O)c5ccccc45)cc3)cc2)NC(=O)[C@H](Cc2ccc(-c3ccc(C(=O)O)cc3)cc2)NC(=O)[C@H](CC2CCCCC2)NC(=O)CSC[C@@H](C(=O)NCC(N)=O)NC(=O)[C@H](CC(C)C)NC(=O)[C@H](Cc2ncc[nH]2)NC(=O)[C@H](C(C)C)NC(=O)[C@@H]2Cc3ccccc3CN2C1=O [Example 561] ({CH2CO}-[Cha][Bip(4'-COOH)][Bip(4'-NH)](Indazole3carbonyl(1-CH2COOH))[Sar]HD[dArg(ω-(3-HO-benzyl))]I[Tic]V[Ala(imidazol-2-yl)]LCG-NH2; thioether N-13),–,< 0.05
CC[C@H](C)[C@@H]1NC(=O)[C@@H](CCCNC(=N)NCc2cccc(O)c2)NC(=O)[C@H](CC(=O)O)NC(=O)[C@H](Cc2cnc[nH]2)NC(=O)CN(C)C(=O)[C@H](Cc2ccc(-c3ccc(NC(=O)c4cccc(CC(=O)O)c4)cc3)cc2)NC(=O)[C@H](Cc2ccc(-c3ccc(C(=O)O)cc3)cc2)NC(=O)[C@H](CC2CCCCC2)NC(=O)CSC[C@@H](C(=O)NCC(N)=O)NC(=O)[C@H](CC(C)C)NC(=O)[C@H](Cc2ncc[nH]2)NC(=O)[C@H](C(C)C)NC(=O)[C@@H]2Cc3ccccc3CN2C1=O [Example 562] ({CH2CO}-[Cha][Bip(4'-COOH)][Bip(4'-NHCO-C6H4-3-CH2COOH)][Sar]HD[dArg(ω-(3-HO-benzyl))]I[Tic]V[Ala(imidazol-2-yl)]LCG-NH2; thioether N-13),0.05 to 0.2,–
CC[C@H](C)[C@@H]1NC(=O)[C@@H](CCCNC(=N)NCc2cccc(O)c2)NC(=O)[C@H](CC(=O)O)NC(=O)[C@H](Cc2cnc[nH]2)NC(=O)CN(C)C(=O)[C@H](Cc2ccc(-c3ccc(NC(=O)c4ccc(CC(=O)O)cc4)cc3)cc2)NC(=O)[C@H](Cc2ccc(-c3ccc(C(=O)O)cc3)cc2)NC(=O)[C@H](CC2CCCCC2)NC(=O)CSC[C@@H](C(=O)NCC(N)=O)NC(=O)[C@H](CC(C)C)NC(=O)[C@H](Cc2ncc[nH]2)NC(=O)[C@H](C(C)C)NC(=O)[C@@H]2Cc3ccccc3CN2C1=O [Example 563] ({CH2CO}-[Cha][Bip(4'-COOH)][Bip(4'-NHCO-C6H4-4-CH2COOH)][Sar]HD[dArg(ω-(3-HO-benzyl))]I[Tic]V[Ala(imidazol-2-yl)]LCG-NH2; thioether N-13),< 0.05,–
CC[C@H](C)[C@@H]1NC(=O)[C@@H](CCCNC(=N)NCc2cccc(O)c2)NC(=O)[C@H](CC(=O)O)NC(=O)[C@H](Cc2cnc[nH]2)NC(=O)CN(C)C(=O)[C@H](Cc2ccc(-c3ccc(NC(=O)c4cccc(OCC(=O)O)c4)cc3)cc2)NC(=O)[C@H](Cc2ccc(-c3ccc(C(=O)O)cc3)cc2)NC(=O)[C@H](CC2CCCCC2)NC(=O)CSC[C@@H](C(=O)NCC(N)=O)NC(=O)[C@H](CC(C)C)NC(=O)[C@H](Cc2ncc[nH]2)NC(=O)[C@H](C(C)C)NC(=O)[C@@H]2Cc3ccccc3CN2C1=O [Example 564] ({CH2CO}-[Cha][Bip(4'-COOH)][Bip(4'-NH)](Benzoyl(3-OCH2COOH))[Sar]HD[dArg(ω-(3-HO-benzyl))]I[Tic]V[Ala(imidazol-2-yl)]LCG-NH2; thioether N-13),< 0.05,–
CC(C)C[C@@H]1NC(=O)[C@H](CCCNC(=N)N)NC(=O)[C@H](C(C)C)NC(=O)[C@@H]2CCCN2C(=O)[C@H](C(C)C)NC(=O)[C@@H](CCCNC(=N)NCc2cccc(O)c2)NC(=O)[C@H](CC(=O)O)NC(=O)[C@@H]2CCCN2C(=O)CN(C)C(=O)[C@H](Cc2ccc(-c3ccc(NC(=O)c4cn(CC(=O)O)c5ccccc45)cc3)cc2)NC(=O)[C@H](Cc2ccc(-c3ccccc3)cc2)NC(=O)[C@H](CN2CCOCC2)NC(=O)CSC[C@@H](C(=O)NCC(N)=O)NC1=O [Example 565] ({CH2CO}-[Ala(morpholin-4-yl)][Bip][Bip(4'-NH)](Indole3carbonyl(1-CH2COOH))[Sar]PD[dArg(ω-(3-HO-benzyl))]VPVRLCG-NH2; thioether N-13),–,< 0.05
